Data reported in patent US8242167B2, “Mannose derivatives for killing tumor cells” (University of Miami, priority 2006, dated 2012).

Legend:
tumor cell lines = experiment: Toxicity survey of tumor cell lines under normoxic conditions; type: cell-based; details: for toxicity to select tumor cell types: normoxia; for tumor cell lines undergoing significant cell death: 6 mM, normal oxygen tension
Experimental: (§1) Cell types. The Δ^0 cells were isolated by treating osteosarcoma cell line 143B (wt) with ethidium bromide for prolonged periods, as previously described (9). Because the Δ^0 cells are uridine and pyruvate auxotrophs, they were grown in DMEM (GIBCO, USA) supplemented with 10% fetal calf serum, 50 μg/ml of uridine and 100 mM sodium pyruvate. The SKBR3 cell line was obtained from Dr. Joseph Rosenblatt's laboratory at the University of Miami. The pancreatic cancer cell lines 1420 and 1469, the ovarian cancer cell line SKOV3, the cervical cancer cell line HELA, and the osteosarcoma cell line 143B were purchased from ATCC. The non-small cell lung cancer and small cell lung cancer cell lines were derived from patients by Dr. Niramol Savaraj at the University of Miami. SKBR3 and SKOV3 cells were grown in McCoy's 5A medium; 1420, 1469 and 143B were grown in DMEM (GIBCO, USA); and HELA was grown in MEM (GIBCO, USA). The media was supplemented with 10% fetal bovine serum. All cells were grown under 5% CO2 and 37° C.
(§2) Cytotoxicity assay. Cells were incubated for 24 hr at 37° C. in 5% CO2 at which time drug treatments began and continued for 72 hr. At this time, attached cells were trypsinized and combined with their respective culture media followed by centrifugation at 400 g for 5 min. The pellets were resuspended in 1 ml of Hanks solution and analyzed by Vi-Cell (Beckman Coulter, USA) cell viability analyzer.

[1] = test system: glycoproteins (ConA binding) in SKBR3 cells; experiment: HRP-conjugated ConA blot of SKBR3 cell extracts; type: cell-based, human; details: SKBR3, 48 hr, 8 mM sugar analog
Experimental: (§3) Western Blot analysis. Cells were plated at 10^4 cell cm^−2 and grown under drug treatment for the indicated times. At the end of the treatment period, cells were collected and lysed with 1% SDS in 80 mM Tris-HCL (ph 7.4) buffer supplemented with a proteinase inhibitor cocktail. DNA was fragmented by sonication and protein concentrations were measured by microBCA protein assay kit (Pierce, USA). Samples were mixed with 2× Laemmli sample buffer (Bio-Rad, USA) and run on a SDS-polyacrylamide gel. Gels were transferred to nitrocellulose membranes (Amersham, USA) and probed with anti-KDEL (Stressgen, Canada) (for Grp78 and Grp94); polyclonal anti-CHOP/[…] (Santa Cruz, USA), polyclonal anti-erbB2 (DAKO, USA). Following probing, membranes were washed and incubated with an HRP conjugated secondary antibody. Chemiluminesence was detected by exposure to film. Where indicated, membranes were stripped with Stripping Buffer (Pierce, USA) and reprobed with anti-actin (Sigma, USA) primary antibody. To analyze conconavalin A (ConA) binding, the membranes were incubated with 0.2 μg/ml HRP-conjugated ConA, and chemiluminescence was detected as described.

SKBR3 cells [2] = experiment: Lactic acid assay in SKBR3 cells; type: cell-based, human; details: 2 mM, 24 hr, 2-FDG vs. 2-DG
Experimental: Lactic acid assay. Lactic acid was measured by adding 0.025 ml of deproteinated medium, from treated or non-treated cultures, to a reaction mixture containing 0.1 ml of lactic acid dehydrogenase (1000 units/ml), 2 ml of glycine buffer (glycine, 0.6 mol/L, and hydrazine, pH 9.2), and 1.66 mg/ml NAD. Deproteinization occurred by treating 0.5 ml of medium from test cultures with 1 ml of perchloric acid at 8% w/v, vortexing for 30 s, then incubating this mixture at 4° C. for 5 min, and centrifuging at 1500 g for 10 min. The supernatant was centrifuged three times more, and 0.025 ml of a final clear supernatant was used for lactic acid determinations. Formation of NADH was measured with a Beckman DUr 520 UV/vis spectrophotometer at 340 nm, which directly corresponds to lactic acid levels as determined by a lactate standard curve.
Lactic acid assay. Lactic acid was measured by adding 0.025 ml of deproteinated medium, from treated or non-treated cultures, to a reaction mixture containing 0.1 ml of lactic dehydrogenase (1000 units/ml), 2 ml of glycine buffer (glycine, 0.6 mol/L, and hydrazine, pH 9.2), and 1.66 mg/ml NAD. […] Formation of NADH was measured with a Beckman DUr 520 UV/vis spectrophotometer at 340 nm, which directly corresponds to lactic acid levels as determined by a lactate standard curve.

SKBR3 cells [3] = experiment: Cytotoxicity in SKBR3 cells under hypoxic conditions; type: cell-based, human; details: 2-FDG vs. 2-DG
Experimental: as §2, with “Hypoxia. For studies in hypoxic conditions (Model C), cells were seeded and incubated for 24 hr at 37° C. and 5% CO2 as described below for direct cytotoxicity assays. After the 24 hr incubation, cells received drug treatment and were placed in a Pro-Ox in vitro chamber attached to a model 110 oxygen controller ([…] Bioinstruments Co. […] Cytotoxicity” for “Cytotoxicity”

SKBR3 cells [4] = experiment: Growth inhibitory and cytotoxicity assay in SKBR3 cells under normoxia; type: cell-based, human; details: for cytotoxicity measured by trypan blue exclusion: SKBR3, 72 hrs, normal oxygen conditions; for reversal of 2-DG toxicity by added sugar: SKBR3, 1 mM sugar with increasing 2-DG, trypan blue exclusion
Experimental: Cytotoxicity assay and Rapid DNA Content Analysis. Cells were incubated for 24 hr at 37° C. in 5% CO2 at which time drug treatments began and were continued for 72 hr. At this time, attached cells were trypsinized and combined with their respective culture media followed by centrifugation at 400 g for 5 min. Pellets containing the cells were either resuspended in 1.5 ml of a medium/trypan blue mixture for cytotoxicity assays or propidium iodide/hypotonic citrate staining solution for determining the nuclear DNA content and cell cycle by a Coulter XL flow cytometer. A minimum of 10,000 cells were analyzed to generate a DNA distribution histogram.
as §2

erbB2 = experiment: Western blot of erbB2 in SKBR3 cells; type: cell-based, human
Experimental: as §3

CHOP/GADD154 = experiment: Western blot of CHOP/GADD154 in SKBR3 cells; type: cell-based, human; details: SKBR3, normoxia, 24 hrs; 8 mM sugar analog
Experimental: as §3

SKBR3 cells [5] = experiment: ATP quantification assay in SKBR3 cells; type: cell-based, human; details: 6 hours, 2-FDG vs. 2-DG
Experimental: ATP quantitation assay. The ATP lite kit (Perkin Elmer) can be used to quantify levels of ATP. About 50 μL of cell lysis solution were added to 100 μL of cell suspension in a white-bottom 96-well plate. The plate was incubated at room temperature on a shaker (700 rpm) for five minutes. 50 μL of substrate solution was then added to the wells and shaken (700 rpm) for another five minutes at room temperature. The plate was then dark adapted for ten minutes and measured for luminescence.
ATP quantification assay. The ATP lite kit (Perkin Elmer) can be used to quantify levels of ATP. About […] of cell lysis solution were added to […] of cell suspension in a white-bottom 96-well plate. The plate was incubated at room temperature on a shaker (700 rpm) for five minutes. About […] solution were then added to the wells and shaken (700 rpm) for another five minutes at room temperature. The plate was then dark adapted for ten minutes and measured for luminescence. To normalize the reduction of ATP production to growth inhibition which results due to treatment with 2-DG or 2-FDG, parallel experiments were run to measure the total protein concentration using a microBCA protein detection kit (Pierce, Rockford, Ill.).

Grp78 and Grp94 [6] = experiment: Western blot of Grp78 and Grp94 (unfolded protein response) in SKBR3 cells under normoxia; type: cell-based, human; details: for expression of chaperones Grp78 and Grp94: SKBR3, normoxia, 24 hrs, 8 mM sugar analog, tunicamycin 1 micro g/ml; for up-regulation of GRP 78 and 94, dose dependence: select tumor cells, normoxic conditions
Experimental: as §3

fowl plague virus = details: chick embryo fibroblasts infected with fowl plague virus; cited from earlier work
Grp78 and Grp94 [7] = experiment: Western blot of Grp78 and Grp94 in models of hypoxia A, B & C; type: cell-based
Experimental: as §3
Three in vitro models of hypoxia. We previously characterized three models of anaerobiosis as follows: Model A are tumor cells treated with 0.05 μg/ml of oligomycin (a mitochondrial inhibitor of ATP synthase); Model B are cells that are deficient in mitochondrial DNA and Model C are cells treated in an hypoxic (0.5% O^2) chamber (Reming Bioinstruments, Redfield, N.Y.).

1420, pancreatic cancer = experiment: Cytotoxicity under normoxia, 1420; type: cell-based, human; details: 1420; 1 mM sugar with increasing 2-DG; trypan blue exclusion
Experimental: as §1, §2

Question: For O=C[C@@H](Cl)[C@@H](O)[C@H](O)[C@H](O)CO [2-CM, 2-deoxy-2-chloro-mannose], which “toxicity to select tumor cell types” value (tumor cell lines) is on record?
Answer: The value was “toxic to select tumor cell types growing under normoxia”.

Question: Which results are given for O=C[C@H](F)[C@@H](O)[C@H](O)[C@H](O)CO [2-FDG, 2-deoxy-2-fluoro-glucose, reference compound]?
Answer: ConA binding of glycoproteins [1]: no reduction in ConA binding; tumor cell lines undergoing significant cell death (tumor cell lines): not; toxicity to select tumor cell types (tumor cell lines): not; toxicity to cell types that are sensitive to 2-DG (tumor cell lines; normoxic conditions): shows no toxicity; inhibition of lactate levels (a measure of glycolysis) (SKBR3 cells [2]): inhibited lactate levels (a measure of glycolysis) better than the latter; toxicity under hypoxic conditions (SKBR3 cells [3]): more toxic than 2-DG; cytotoxicity measured by trypan blue exclusion (SKBR3 cells [4]): is not; rank order in growth inhibiting and killing SKBR3 cells (SKBR3 cells [4]; normoxia): 2-DG>2-FDM>>>2-FDG; toxicity to SKBR3 cells grown under normoxia (FIG. 1) (SKBR3 cells [4]; normoxia): neither of these agents caused toxicity; molecular weight of erbB2 (erbB2): had no effect; induction of GADD154/CHOP (CHOP/GADD154): not; ATP depletion (SKBR3 cells [5]): ATP depletion was more prominent; expression of chaperones Grp78 and Grp94 (Grp78 and Grp94 [6]): does not increase the levels of these chaperones as much as 2-DG or 2-FDM; up-regulation of GRP 78 and 94, dose dependence (Grp78 and Grp94 [6]): not; order of potency to inhibit viral glycoprotein synthesis (fowl plague virus): 2-DG>2-FDM>2-FDG

Question: What does the source list for O=C[C@@H](F)[C@@H](O)[C@H](O)[C@H](O)CO [2-FDM, 2-deoxy-2-fluoro-mannose]?
Answer: ConA binding of glycoproteins [1]: decrease ConA binding; toxicity in 2-DG sensitive and 2-DG resistant cell types (tumor cell lines; 4 mM): caused toxicity in 2-DG sensitive but not 2-DG resistant cell types; tumor cell lines undergoing significant cell death (tumor cell lines): 6 out of 15; toxicity to select tumor cell types (tumor cell lines): toxic to select tumor cell types growing under normoxia; cytotoxicity measured by trypan blue exclusion (SKBR3 cells [4]): toxic; rank order in growth inhibiting and killing SKBR3 cells (SKBR3 cells [4]; normoxia): 2-DG>2-FDM>>>2-FDG; molecular weight of erbB2 (erbB2): decreased the molecular weight of erbB2; induction of GADD154/CHOP (CHOP/GADD154): induced; expression of chaperones Grp78 and Grp94 (Grp78 and Grp94 [6]): both Grp78 and Grp94 are upregulated; up-regulation of GRP 78 and 94, dose dependence (Grp78 and Grp94 [6]): up-regulated by 2-DG and 2-FM in a dose-dependent manner; order of potency to inhibit viral glycoprotein synthesis (fowl plague virus): 2-DG>2-FDM>2-FDG; upregulation of the UPR (Grp78, Grp94) (Grp78 and Grp94 [7]; hypoxia model C): both chaperones are upregulated; upregulation of the UPR (Grp78, Grp94) (Grp78 and Grp94 [7]; hypoxia models A and B): no significant upregulation of the UPR

Question: Which “reversal of 2-DG toxicity by added sugar” value (SKBR3 cells [4]) does the source give for O=C(CO)[C@@H](O)[C@H](O)[C@H](O)CO [fructose, reference compound] here?
Answer: The value was “had no effect”.

Question: What about the “reversal of 2-DG toxicity by added sugar” value (1420, pancreatic cancer) of the same molecule?
Answer: Its value is “had no effect”.

Question: Which “reversal of 2-DG toxicity by added sugar” value (SKBR3 cells [4]) does the source give for C[C@H](O)[C@@H](O)[C@@H](O)[C@H](O)C=O [fucose, reference compound] here?
Answer: The value was “had no effect”.

Question: What about the “reversal of 2-DG toxicity by added sugar” value (1420, pancreatic cancer) of the same molecule?
Answer: Its value is “had no effect”.

Question: With NC(=O)C(=O)O [oxamate, reference compound] as the molecule, how does the “cytotoxicity measured by trypan blue exclusion” value (SKBR3 cells [4]) read?
Answer: Its value is “not toxic”.

Question: What does the source list for tunicamycin [reference compound]?
Answer: ConA binding of glycoproteins [1]: decrease ConA binding; induction of GADD154/CHOP (CHOP/GADD154): induced; expression of chaperones Grp78 and Grp94 (Grp78 and Grp94 [6]): both Grp78 and Grp94 are upregulated; synthesis of chaperones Grp78 and Grp94 (Grp78 and Grp94 [7]; all three hypoxia models (positive control)): induce the synthesis of these chaperones in all three models
